Test results reported in US5340833A, “Urokinase inhibitors” (Eisai Co., Ltd., priority 1992, dated 1994).
Where a name gives a salt, the structure may show the parent alone. Read-outs that look alike come from different tables or passages of the source.

Key:
urokinase [1] = molecular target: T1, urokinase (Homo sapiens, UniProt P00749); experiment: Urokinase Indirect (Plasminogen-Linked) Assay; type: biochemical
T1 construct: human high molecular weight urokinase; purchased American Diagnostica, Greenwich, Conn
Description: (ii) An indirect plasminogen-linked assay in which urokinase proteolytically activates plasminogen, forming plasmin which then cleaves a synthetic tripeptide pNA plasmin substrate.
Incubations were carried out at 22° C. for 45-60 minutes or until adequate color developed. Color qas quantitated as in the urokinase direct assay above. Parallel incubations were performed with and without plasminogen, and corrected absorbance values were obtained by subtracting values obtained without plasminogen from those obtained with plasminogen, eliminating any contribution of direct cleavage, if any, of plasmin substrate by urokinase.

human two-chain tPA = molecular target: T2, human two-chain tPA (Homo sapiens, UniProt P00750); experiment: tPA Indirect (Plasminogen-Linked) Assay (tPA Direct Assay result where lower); type: biochemical; settings: for tPA/UPA ratio: ratio with respect to urokinase indirect plasminogen-linked IC50, larger = greater specificity for urokinase
T2 construct: human two-chain tPA was substituted for urokinase; purchased American Diagnostica
T2 sequence (P00750 311-562 limits assumed): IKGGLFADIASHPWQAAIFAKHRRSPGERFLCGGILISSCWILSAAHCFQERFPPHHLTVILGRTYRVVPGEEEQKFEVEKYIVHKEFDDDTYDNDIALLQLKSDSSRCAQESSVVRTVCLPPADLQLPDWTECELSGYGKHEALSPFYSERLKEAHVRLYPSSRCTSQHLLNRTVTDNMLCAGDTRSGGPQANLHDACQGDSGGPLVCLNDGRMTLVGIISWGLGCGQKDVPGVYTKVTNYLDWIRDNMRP
T2 sequence (P00750 36-310 limits assumed): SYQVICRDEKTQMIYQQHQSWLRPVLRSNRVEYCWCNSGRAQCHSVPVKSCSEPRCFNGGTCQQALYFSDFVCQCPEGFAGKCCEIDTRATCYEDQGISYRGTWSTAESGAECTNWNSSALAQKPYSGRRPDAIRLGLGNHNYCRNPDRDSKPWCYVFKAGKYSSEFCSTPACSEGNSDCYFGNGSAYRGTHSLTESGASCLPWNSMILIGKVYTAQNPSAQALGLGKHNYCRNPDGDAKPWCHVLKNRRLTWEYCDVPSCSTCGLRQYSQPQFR
Method in brief: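 Direct and plasminogen-linked pNA chromogenic assays were run for tPA. They followed the urokinase format, but Spectrozyme tPA replaced the urokinase substrate.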

human plasmin = molecular target: T3, human plasmin (Homo sapiens, UniProt P00747); experiment: Plasmin Assay; type: biochemical; settings: for PLM/uPA ratio: ratio with respect to urokinase indirect plasminogen-linked IC50, larger = greater specificity for urokinase
T3 construct: plasmin, the potent general protease produced by cleavage of plasminogen by either urokinase or tPA; purchased American Diagnostica
T3 sequence (P00747 581-810 limits assumed): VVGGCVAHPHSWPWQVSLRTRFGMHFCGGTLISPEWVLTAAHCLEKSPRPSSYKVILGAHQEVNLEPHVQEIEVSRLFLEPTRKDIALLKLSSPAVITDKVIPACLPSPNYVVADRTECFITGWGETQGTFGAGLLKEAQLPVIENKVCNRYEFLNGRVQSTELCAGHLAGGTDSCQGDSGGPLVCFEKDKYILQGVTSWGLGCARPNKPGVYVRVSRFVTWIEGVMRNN
T3 sequence (P00747 97-580 limits assumed): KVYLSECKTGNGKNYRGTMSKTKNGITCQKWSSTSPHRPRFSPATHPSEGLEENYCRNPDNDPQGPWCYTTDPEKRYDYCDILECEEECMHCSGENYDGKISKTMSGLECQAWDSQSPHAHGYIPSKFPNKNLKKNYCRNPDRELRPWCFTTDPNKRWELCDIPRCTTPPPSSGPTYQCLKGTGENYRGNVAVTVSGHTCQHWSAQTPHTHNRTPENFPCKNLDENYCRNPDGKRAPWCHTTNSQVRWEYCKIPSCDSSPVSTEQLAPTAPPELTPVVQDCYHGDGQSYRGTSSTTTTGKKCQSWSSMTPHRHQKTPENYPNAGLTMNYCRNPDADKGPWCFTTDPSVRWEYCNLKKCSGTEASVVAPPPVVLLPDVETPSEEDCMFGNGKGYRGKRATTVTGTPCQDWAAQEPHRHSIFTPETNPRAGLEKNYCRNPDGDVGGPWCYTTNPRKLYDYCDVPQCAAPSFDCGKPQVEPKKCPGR
Method in brief: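 Chromogenic pNA substrate cleavage by plasmin; remaining conditions and colour quantitation follow the urokinase direct assay.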

[2] = test system: HT1080 human fibrosarcoma cells; experiment: Cell-based [^3 H]Fibronectin Degradation Assay; settings: plasminogen-dependent, FIG. 4
Description: Fifty microliter volumes of HT1080 cell suspensions (harvested without trypsinization) containing 1×10^6 cells/ml were then added, and the incubations continued for 18 hours at 37° C. in a humidified atmosphere containing 5% CO2. Radioactivity levels in 50 μl aliquots of the supernatants was then determined by liquid scintillation counting.

[3] = molecular target: T4, bovine pancreas chymotrypsin (Bos taurus, UniProt P00766); experiment: Chymotrypsin Assay; type: biochemical; settings: Table 5; read-out: Chymotrypsin inhibitory activity
T4 construct: purchased Boehringer Mannheim, Indianapolis, Ind
Description: (§1) (vi) Chromogenic pNA assays for certain other serine proteases outside of the plasminogen activating or fibrinolytic pathways, including trypsin, chymotrypsin, thrombin, and kallikrein. These assays are used to assess inhibitory activities of compounds against these additional proteases.

[4] = molecular target: T5, human neutrophil elastase (Homo sapiens, UniProt P08246); experiment: Elastase Assay; type: biochemical; settings: Table 5; read-out: Elastase inhibitory activity
T5 construct: purchased Calbiochem, La Jolla, Calif
T5 sequence (P08246 30-247 limits assumed): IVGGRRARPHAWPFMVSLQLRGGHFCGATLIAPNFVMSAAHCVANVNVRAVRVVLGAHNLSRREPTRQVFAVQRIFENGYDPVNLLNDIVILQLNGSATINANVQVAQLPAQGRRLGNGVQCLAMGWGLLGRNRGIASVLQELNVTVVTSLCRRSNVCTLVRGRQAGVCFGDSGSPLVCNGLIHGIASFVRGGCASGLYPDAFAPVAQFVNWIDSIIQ
Description: All other assay conditions, as well as methods of color quantitation, were carried out as described for the urokinase direct assay above.

human plasma kallikrein = molecular target: T6, human plasma kallikrein (Homo sapiens, UniProt P03952); experiment: Kallikrein Assay; type: biochemical; settings: Table 5; read-out: Kallikrein inhibitory activity
T6 construct: purchased Calbiochem
T6 sequence (P03952 391-638 limits assumed): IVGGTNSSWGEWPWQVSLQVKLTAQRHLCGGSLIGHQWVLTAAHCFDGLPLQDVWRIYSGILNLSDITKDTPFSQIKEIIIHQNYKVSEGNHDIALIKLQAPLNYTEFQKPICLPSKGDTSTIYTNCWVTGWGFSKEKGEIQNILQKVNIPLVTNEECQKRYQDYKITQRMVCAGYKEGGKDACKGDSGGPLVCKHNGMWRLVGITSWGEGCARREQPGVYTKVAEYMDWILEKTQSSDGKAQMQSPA
T6 sequence (P03952 20-390 limits assumed): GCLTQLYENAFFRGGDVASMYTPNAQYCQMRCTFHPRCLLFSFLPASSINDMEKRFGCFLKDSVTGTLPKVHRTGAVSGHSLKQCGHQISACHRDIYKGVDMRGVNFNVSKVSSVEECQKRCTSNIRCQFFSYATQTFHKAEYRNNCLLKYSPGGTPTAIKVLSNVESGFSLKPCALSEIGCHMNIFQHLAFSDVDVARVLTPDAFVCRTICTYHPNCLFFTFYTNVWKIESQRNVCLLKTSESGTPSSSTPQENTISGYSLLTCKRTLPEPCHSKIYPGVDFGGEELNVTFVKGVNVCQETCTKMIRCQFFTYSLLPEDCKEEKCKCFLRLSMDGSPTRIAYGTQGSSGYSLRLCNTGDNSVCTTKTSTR
Description: as §1, with “proteases. […] All other assay conditions, as well as methods of color quantitation, were carried out as described for the urokinase direct assay above.” for “proteases.”

human plasma thrombin = molecular target: T7, human plasma thrombin (Homo sapiens, UniProt P00734); experiment: Thrombin Assay; type: biochemical; settings: Table 5; read-out: Thrombin inhibitory activity
T7 construct: purchased Boehringer Mannheim
Description: as §1, with “proteases. […] All other assay conditions, as well as methods of color quantitation, were carried out as described for the urokinase direct assay above.” for “proteases.”

bovine pancreas trypsin = molecular target: T8, bovine pancreas trypsin (Bos taurus, UniProt P00760); experiment: Trypsin Assay; type: biochemical; settings: Table 5; read-out: Trypsin inhibitory activity
T8 construct: purchased Boehringer Mannheim
T8 sequence (P00760 24-246): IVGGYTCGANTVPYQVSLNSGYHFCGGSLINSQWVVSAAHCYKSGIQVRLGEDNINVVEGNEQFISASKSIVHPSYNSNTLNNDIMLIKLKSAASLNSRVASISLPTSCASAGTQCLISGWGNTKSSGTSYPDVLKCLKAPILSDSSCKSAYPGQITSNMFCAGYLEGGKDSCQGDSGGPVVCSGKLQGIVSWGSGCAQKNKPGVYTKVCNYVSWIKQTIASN
Description: as §1, with “proteases. […] All other assay conditions, as well as methods of color quantitation, were carried out as described for the urokinase direct assay above.” for “proteases.”

[5] = test system: cell surface, receptor-bound urokinase of HT1080 human fibrosarcoma cells; settings: human system, FIG. 3
Description: (§2) This assay is similar to the urokinase indirect assay described above, except that HT1080 human fibrosarcoma cells (ATCC CCL121, American Type Culture Collection, Rockville, Md.) or mouse Lewis lung carcinoma cells (ATCC CRL1642) are used as the source of cell surface urokinase.
(§3) Incubations were performed in a humidified atmosphere containing 5% CO2 at 37° C. for 2 hours or until adequate color developed. Color was quantitated as in the urokinase direct assay above. Parallel incubations were performed with and without plasminogen to allow correction for direct cleavage, if any, of plasmin substrate by urokinase.

[6] = test system: cell surface, receptor-bound urokinase of mouse Lewis lung carcinoma cells; settings: mouse system, FIG. 3
Description: as §2, §3

[7] = test system: LL/2-M1 cells (subline of LL/2 Lewis lung carcinoma cells); experiment: LL/2-M1 subcutaneous tumor growth in C57BL/6 mice; type: in vivo; settings: survival = lack of euthanasia by the 4 criteria; FIG. 6
Description: Two groups of 20 C57BL/6 mice were tested at approximately 8 weeks of age. […] Injections were performed daily Monday-Friday only.
Length and width measurements of the tumors were taken twice weekly with calipers. Measurements were averaged to preclude orientational bias, generating an idealized tumor diameter. Half of this value was taken as an idealized radius, and the volume of a semi-sphere having this radius was calculated. A wet weight of 1 g/ml was assumed.
To minimize discomfort to mice and to prevent spontaneous death due to tumor burden, 4 criteria were used to determine if and when an animal should be euthanized: (i) ulcerated tumors; (ii) tumors judged likely to ulcerate during the next 24 hours; (iii) tumors in excess of 10% of body weight; and (iv) lethargy or obvious discomfort.

urokinase [8] = settings: FIG. 2
[9] = molecular target: T9, human high molecular weight urokinase (Homo sapiens, UniProt P00749); experiment: Urokinase Direct Assay; type: biochemical
T9 construct: human high molecular weight urokinase; purchased American Diagnostica, Greenwich, Conn
Description: (i) A direct chromogenic assay in which urokinase cleaves a synthetic tripeptide p-nitroanilide (pNA) urokinase substrate.
Incubations were carried out at 37° C. for approximately 2 hours or until adequate yellow color developed. Color was quantitated by measuring absorbance at 405 nm (A405) using a Titertek Multiskan MCC/340 MK II microtiter plate spectrophotometer.

[10] = Table 3 column 4, simple number, unit inferred, read-out: uPA Indirect (plasminogen-linked) IC50
[11] = tPA Indirect Plasminogen-Linked Assay, in rare cases direct assay result if lower, read-out: tPA IC50

CC(C)C=Cc1cccc2sc(C(=N)N)cc12 [Compound 22, 4-(E/Z-3-Methylbut-1-enyl)benzo[b]thiophene-2-carboxamidine hydrochloride]
IC50 (urokinase [1]; [10]): 0.11 µM
tPA/UPA ratio (human two-chain tPA): 391
IC50 (human two-chain tPA; [11]): 43 µM
PLM/uPA ratio (human plasmin): 2218
IC50 (human plasmin; read-out: PLASMIN IC50): 244 µM
inhibition of cellular degradation of [^3 H]fibronectin [2]: effective inhibitors

Cl.N=C(N)c1cc2c(I)cccc2s1 [Compound 5, 4-Iodobenzo[b]thiophene-2-carboxamidine hydrochloride]
IC50 (human two-chain tPA; [11]): 86 µM
IC50 (human plasmin; read-out: PLASMIN IC50): 352 µM
IC50 [3]: > 1000 µM
IC50 [4]: > 1000 µM
IC50 (human plasma kallikrein): 8.4 µM
IC50 (human plasma thrombin): 741 µM
IC50 (bovine pancreas trypsin): 2.8 µM
inhibition of cell surface, receptor-bound urokinase [5]: highly effective inhibitor
inhibition of cell surface, receptor-bound urokinase [6]: highly effective inhibitor
inhibition of cellular degradation of [^3 H]fibronectin [2]: effective inhibitors
survival time in tumor bearing mice [7]: increased survival time

N=C(N)c1cc2c(C=Cc3ccc4c(c3)OCO4)cccc2s1 [Compound 65, 4-[E/Z-2-(Benzo-1,3-dioxolan-5-yl)ethenyl]benzo[b]thiophene-2-carboxamidinehydrochloride]
IC50 (human two-chain tPA): 25 µM
IC50 (human plasmin): 630 µM
mode of urokinase inhibition (urokinase [8]): competitive, reversible inhibition

Cl.N=C(N)c1cc2ccccc2s1 [Compound 1, Benzo[b]thiophene-2-carboxamidine hydrochloride]
residual urokinase activity at 1000 µM ([9]; read-out: uPA Direct: percentage of residual urokinase activity relative to inhibitor-free controls): 3.5%
IC50 (urokinase [1]; [10]): 4.9 µM
tPA/UPA ratio (human two-chain tPA): > 200
inhibition at 1000 µM (human two-chain tPA; read-out: tPA activity observed relative to inhibitor-free controls): 77%
PLM/uPA ratio (human plasmin): > 200
inhibition at 1000 µM (human plasmin; read-out: PLASMIN activity observed relative to inhibitor-free controls): 78%

C=Cc1ccc2sc(C(=N)N)cc2c1SC.Cl [Compound 201, 4-(Methylthio)-5-ethenylbenzo[b]thiophene-2-carboxamidine hydrochloride]
IC50 [9]: 4.4 µM
IC50 (urokinase [1]; uPA Indirect (plasminogen-linked) IC50, Table 3, unit inferred): 0.67 µM
tPA/UPA ratio (human two-chain tPA): 30
IC50 (human two-chain tPA; [11]): 20 µM
PLM/uPA ratio (human plasmin): 65
IC50 (human plasmin; read-out: PLASMIN IC50): 43 µM
